Source: ChEMBL document CHEMBL1201862, “PubChem BioAssay data set” (2004)
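All cell lines were grown in 96-well plates and treated with compound for 48 hours. GI50: concentration for 50% inhibition of growth.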 The source made the active and inactive calls. Rule as the data show it: active = GI50 up to about 1.1 µM and inactive = higher.

What was measured:
Assay in all cases: inhibition of tumour cell growth, NCI panel, 48 h
[1] = system: MDA-MB-435
[2] = system: HL-60
[3] = system: NCI/ADR-RES
[4] = system: Malme-3M
[5] = system: HCT-15
[6] = system: HCT-116
[7] = system: OVCAR-8
[8] = system: HOP-92
[9] = system: CAKI-1
[10] = system: SN12C
[11] = system: SF-295
[12] = system: UO-31
[13] = system: K562
[14] = system: NCI-H460
[15] = system: U-251
[16] = system: NCI-H522
[17] = system: NCI-H226
[18] = system: HOP-62
[19] = system: NCI-H23
[20] = system: SF-539

Row | Compound | GI50 [1] | GI50 [2] | GI50 [3] | GI50 [4] | GI50 [5] | GI50 [6] | GI50 [7] | GI50 [8] | GI50 [9] | GI50 [10] | GI50 [11] | GI50 [12] | GI50 [13] | GI50 [14] | GI50 [15] | GI50 [16] | GI50 [17] | GI50 [18] | GI50 [19] | GI50 [20]
1 | NCCCC(N)C(=O)O (configuration not stated) | > 100 µM (inactive) | > 100 µM (inactive) | > 100 µM (inactive) | > 100 µM (inactive) | > 100 µM | > 100 µM (inactive) | > 100 µM (inactive) | > 100 µM (inactive) | > 100 µM (inactive) | > 100 µM (inactive) | > 100 µM (inactive) | > 100 µM (inactive) | > 100 µM (inactive) | > 100 µM (inactive) | > 100 µM (inactive) | > 100 µM (inactive) | 77.8 µM (inactive) | > 100 µM (inactive) | > 100 µM (inactive) | 
2 | CC(=O)OCC1OC(n2c(-c3ccccc3)c(C(C)=O)c(-c3cccc4ccccc34)c(C#N)c2=S)C(OC(C)=O)C(OC(C)=O)C1OC(C)=O (configuration not stated) | > 100 µM (inactive) | > 100 µM (inactive) | > 100 µM (inactive) | > 100 µM (inactive) | > 100 µM | > 100 µM (inactive) | > 100 µM (inactive) |  |  | > 100 µM (inactive) | > 100 µM (inactive) | < 0.01 µM (active) | > 100 µM (inactive) | > 100 µM (inactive) | > 100 µM (inactive) | > 100 µM (inactive) | > 100 µM (inactive) | > 100 µM (inactive) | > 100 µM (inactive) | > 100 µM (inactive)
3 | Nc1nc2cc(CNc3ccc(C(=O)NC(CCC(=O)O)C(=O)O)cc3)ccc2nc1-c1ccccc1 (configuration not stated) | > 10 µM (inactive) | > 10 µM (inactive) | > 10 µM (inactive) | > 10 µM (inactive) | > 10 µM | > 10 µM (inactive) | > 10 µM (inactive) |  | > 10 µM (inactive) | > 10 µM (inactive) | > 10 µM (inactive) | > 10 µM (inactive) | > 10 µM (inactive) | > 10 µM (inactive) | > 10 µM (inactive) | > 10 µM (inactive) | > 10 µM (inactive) | > 10 µM (inactive) | > 10 µM (inactive) | > 10 µM (inactive)
4 | O=C1c2ccccc2C(=O)N1NC1=NCCN1 | > 100 µM (inactive) | > 100 µM (inactive) | > 100 µM (inactive) | > 100 µM (inactive) | > 100 µM | > 100 µM (inactive) | > 100 µM (inactive) |  | > 100 µM (inactive) | > 100 µM (inactive) | > 100 µM (inactive) |  | > 100 µM (inactive) | > 100 µM (inactive) | > 100 µM (inactive) | > 100 µM (inactive) | > 100 µM (inactive) | > 100 µM (inactive) | > 100 µM (inactive) | > 100 µM (inactive)
5 | Cc1ccc(C2=CC(=O)OC(C[P+](c3ccccc3)(c3ccccc3)c3ccccc3)(c3ccccc3)O2)cc1 (configuration not stated) | 16.2 µM (inactive) | 20.1 µM (inactive) | 19 µM (inactive) | 16.1 µM (inactive) | 20 µM | 14.5 µM (inactive) | 24.5 µM (inactive) |  | 15.4 µM (inactive) | 27.2 µM (inactive) | 26.9 µM (inactive) | 16.3 µM (inactive) | 23.3 µM (inactive) | 17.8 µM (inactive) | 17.9 µM (inactive) | 12 µM (inactive) | 27.1 µM (inactive) | 19.5 µM (inactive) | 13.6 µM (inactive) | 18.1 µM (inactive)
6 | C=C1CCC2CC1C(C(=O)c1c[nH]c3ccccc13)=NC2(C)C (configuration not stated) | > 100 µM (inactive) | > 100 µM (inactive) | > 100 µM (inactive) | > 100 µM (inactive) | > 100 µM | > 100 µM (inactive) | > 100 µM (inactive) |  | > 100 µM (inactive) | > 100 µM (inactive) |  | > 100 µM (inactive) | 92.7 µM (inactive) | > 100 µM (inactive) | > 100 µM (inactive) | > 100 µM (inactive) | > 100 µM (inactive) | > 100 µM (inactive) | > 100 µM (inactive) | > 100 µM (inactive)
7 | CCOC(=O)C(NC(=O)C(CCCCNP(=O)(OCC)OCC)NC(=O)C(C)NC(C)=O)C(C)C (configuration not stated) | > 100 µM (inactive) | > 100 µM (inactive) | > 100 µM (inactive) | > 100 µM (inactive) | > 100 µM | > 100 µM (inactive) | > 100 µM (inactive) | > 100 µM (inactive) | > 100 µM (inactive) | > 100 µM (inactive) | > 100 µM (inactive) | > 100 µM (inactive) | > 100 µM (inactive) | > 100 µM (inactive) | > 100 µM (inactive) |  | > 100 µM (inactive) | > 100 µM (inactive) | > 100 µM (inactive) | > 100 µM (inactive)
8 | COc1cc(COC(=O)N(CC(=O)O)c2ccccc2)c([N+](=O)[O-])cc1OC | > 100 µM (inactive) | > 100 µM (inactive) | > 100 µM (inactive) | > 100 µM (inactive) | > 100 µM |  | > 100 µM (inactive) | > 100 µM (inactive) |  | > 100 µM (inactive) | > 100 µM (inactive) | > 100 µM (inactive) | > 100 µM (inactive) | > 100 µM (inactive) | > 100 µM (inactive) |  | > 100 µM (inactive) | > 100 µM (inactive) | > 100 µM (inactive) | > 100 µM (inactive)
